# What was measured:
# Assay type in all cases: biochemical
# [1] = system: Rhizopus chinensis lipase r27RCL; test: Ester synthesis activity of surfactant-treated lyophilized lipase r27RCL by GC analysis; conditions: surfactant 10 mM, protein 0.2 mg·mL^−1
# Method: (§1) (2) Determination of Ester Synthesis Activity of the Lipase by GC Analysis
# (§2) Substrate solution A: 48.5 mL of n-octanoic acid is dissolved in 250 mL of n-heptane in a volumetric flask.
# (§3) Substrate solution B: 17.5 mL of absolute ethanol is dissolved in 250 mL of n-heptane in a volumetric flask.
# (§4) Internal standard: 2-hexanol/n-heptane (35 g·L^−1).
# (§5) Standard sample: 10 g of n-octanoate is dissolved in 1000 mL of n-heptane in a volumetric flask.
# (§6) 1 mL substrate solution A and substrate solution B are added in a 5 mL Eppendorf tube respectively, then 20 mg lipase powder (or lyophilized powder) is added. The reaction is carried out at 40° C. and with shaking at 150 rpm for 30 min. Remove the lipase powder by centrifugation or membrane filtration. Then 0.1 mL of internal standard is added in 0.4 mL of filtrate or supernatant and mixed. Measure the content of n-octanoate in the mixture above by GC analysis.
# (§7) The gas chromatograph (6820, Agilent Instruments) is equipped with a AC20 (PEG20000) capillary column and a FID detector. Nitrogen was used as the carrier gas. The oven temperature was programmed to start at 90° C. for 1 min and then be elevated to 200° C. for 5 min at 10° C.·min^−1. The injector and detector temperatures were set at 250° C.
# (§8) Definition of enzyme activity: One unit of ester synthesis activity is defined as the amount of enzyme that esterifies 1 micromole of n-octanoate per min.
# (§9) Specific activity: the activity of lipase per milligram of total protein in the lipase preparation.
# (§10) Total recovery: the percentage of the activity after a treatment to that before the treatment
# (§11) Add an equal volume of high-concentration surfactant solution into the enzyme solution. The final protein concentration was […] and the surfactant concentration was 10 mM. After mixed thoroughly, the mixture was lyophilized and kept in dry condition.
# (§12) Commercial lipase r27RCL was purchased from Jiangsu Yiming Biological Technology Co., Ltd, which has high hydrolytic activity and low ester synthesis activity. Dissolve the r27RCL powder in water and centrifuge to obtain the supernatant containing the r27RCL lipase to adjust the ester synthesis activity (the final protein concentration was 0.2 mg·mL^−1 and the final concentration of surfactant was 10 mM, which is between 0.1×CMC^˜200×CMC of the different surfactants in Table 1).
# (§13) Commercial lipase r27RCL was purchased from Jiangsu Yiming Biological Technology Co., Ltd. r27RCL is a lipase with high hydrolytic activity but low ester synthesis activity. Dissolve the r27RCL powder in water, centrifuge to obtain the supernatant and treat the supernatant with different concentrations of surfactant LPC14 (the final protein concentration was 0.2 mg·mL^−1).
# [2] = system: Rhizopus chinensis lipase r27RCL; test: Hydrolytic activity of surfactant-treated lipase r27RCL using pNPP as substrate; conditions: surfactant 10 mM, protein 0.2 mg·mL^−1
# Description: (§14) (1) Determination of Hydrolytic Activity of the Lipase Using p-Nitrophenyl Palmitate (pNPP) as Substrate
# (§15) Hydrolysis of pNPP catalyzed by lipase generates p-nitrophenol and palmitic acid. p-nitrophenol appears yellow in the buffer at pH 8.0 with the maximum absorption peak at 410 nm. Determination of hydrolytic activity can be achieved by measuring the absorbance at 410 nm.
# (§16) The substrate solution A: 50 mmol·L^−1 sodium phosphate buffer (pH 8.0) containing 1.16 g·L^−1 sodium deoxycholate and 0.56 g·L^−1 arabic gum. Substrate solution B: 0.015 g pNPP is dissolved in 5 mL isopropyl alcohol. Substrate solution A and substrate solution B are mixed then stored for use afterwards.
# (§17) Termination solution: 40 g·L^−1 NaOH, 93.05 g·L^−1 EDTA sodium. Add 62 uL termination solution to the reaction mixture when stopping the reaction.
# (§18) Add 0.1 mL appropriately diluted enzyme solution, which is substituted by inactivated enzyme solution as the control, to 2.4 mL substrate solution above, incubate the mixture at 40° C. for 2 min and measure the absorbance at 410 nm.
# (§19) one hydrolytic activity unit is defined as the amount of enzyme that catalyzes the formation of 1 μmol of p-nitrophenol in 1 minute at 40° C.
# (§20) enzyme activity (U·mL^−1)=(V×A410×10^6)/(ε×t×V′) Calculation equation: […]
# (§21) Specific activity: the activity of lipase per milligram of total protein in the lipase preparation. […]
# as §12, §13
# [3] = target: T1, Rhizoupus oryzae lipase ROL (Rhizopus oryzae, UniProt P61872); test: Ester synthesis activity of surfactant-treated lyophilized lipase ROL by GC analysis; conditions: surfactant 10 mM, protein 0.2 mg·mL^−1
# T1 construct: purchased Sigma-Aldrich Co., Ltd
# Method: as §1, §2, §3, §4, §5, §6, §7, §8, §9, §10, §11
# (§22) Commercial lipase ROL was purchased from Sigma-Aldrich Co., Ltd. ROL is a non-immobilized lipase. Dissolve the ROL powder in water and centrifuge to obtain the supernatant containing the ROL lipase that would be regulated to improve its ester synthesis activity by adjusting the final protein concentration to 0.2 mg·mL^−1 and adding surfactants to the final concentration of 10 mM.
# (§23) Commercial lipase ROL was purchased from Sigma-Aldrich Co., Ltd. and is a non-immobilized lipase. Dissolve the ROL powder in water, centrifuge to obtain the supernatant and treat the supernatant with different concentrations of surfactant LPC14 (the final protein concentration was 0.2 mg·mL^−1).
# [4] = target: T1, Rhizoupus oryzae lipase ROL; test: Hydrolytic activity of surfactant-treated lipase ROL using pNPP as substrate; conditions: surfactant 10 mM, protein 0.2 mg·mL^−1
# Description: as §14, §15, §16, §17, §18, §19, §20, §21, §22, §23
# [5] = target: T2, Pseudomonas cepacia lipase PCL (Burkholderia cepacia, UniProt P22088); test: Ester synthesis activity of surfactant-treated lyophilized lipase PCL by GC analysis; conditions: surfactant 10 mM, protein 0.2 mg·mL^−1
# T2 construct: purchased Sigma-Aldrich Co., Ltd
# Method: as §1, §2, §3, §4, §5, §6, §7, §8, §9, §10, §11
# as §22, with “PCL” for “ROL”, “the” for “its”
# (§24) Commercial lipase PCL was purchased from Sigma-Aldrich Co., Ltd. and is a non-immobilized lipase. Dissolve the PCL powder in water, centrifuge to obtain the supernatant and treat the supernatant with different concentrations of surfactant DDM (the final protein concentration was 0.2 mg·mL^−1).
# [6] = target: T2, Pseudomonas cepacia lipase PCL; test: Hydrolytic activity of surfactant-treated lipase PCL using pNPP as substrate; conditions: surfactant 10 mM, protein 0.2 mg·mL^−1
# Description: as §14, §15, §16, §17, §18, §19, §20, §21
# as §22, with “PCL” for “ROL”, “the” for “its”
# as §24
# [7] = target: T3, Candida antarctica lipase CALB (Moesziomyces antarcticus, UniProt P41365); test: Ester synthesis activity of surfactant-treated lyophilized lipase CALB by GC analysis; conditions: surfactant 10 mM, protein 0.12 mg·mL^−1
# T3 construct: purchased Sigma-Aldrich Co., Ltd
# Method: as §1, §2, §3, §4, §5, §6, §7, §8, §9, §10, §11
# as §22, with “CALB” for “ROL”, “the” for “its”, “0.12” for “0.2”
# (§25) Commercial lipase CALB was purchased from Sigma-Aldrich Co., Ltd. and is a non-immobilized lipase. Dissolve the CALB powder in water, centrifuge to obtain the supernatant and treat the supernatant with different concentrations of surfactant DDM (the final protein concentration was 0.12 mg·mL^−1).
# [8] = target: T3, Candida antarctica lipase CALB; test: Hydrolytic activity of surfactant-treated lipase CALB using pNPP as substrate; conditions: surfactant 10 mM, protein 0.12 mg·mL^−1
# Description: as §14, §15, §16, §17, §18, §19, §20, §21
# as §22, with “CALB” for “ROL”, “the” for “its”, “0.12” for “0.2”
# as §25
# T2 sequence (P22088 45-364): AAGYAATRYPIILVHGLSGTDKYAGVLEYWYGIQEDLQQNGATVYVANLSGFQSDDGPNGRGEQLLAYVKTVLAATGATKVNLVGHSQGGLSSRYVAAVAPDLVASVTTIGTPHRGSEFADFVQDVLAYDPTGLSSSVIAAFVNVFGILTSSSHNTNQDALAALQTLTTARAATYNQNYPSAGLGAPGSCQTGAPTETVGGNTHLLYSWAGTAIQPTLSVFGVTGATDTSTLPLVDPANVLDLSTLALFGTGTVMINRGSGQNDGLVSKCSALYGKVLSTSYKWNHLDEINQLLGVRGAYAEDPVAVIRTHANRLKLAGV
# T3 sequence (P41365 26-342): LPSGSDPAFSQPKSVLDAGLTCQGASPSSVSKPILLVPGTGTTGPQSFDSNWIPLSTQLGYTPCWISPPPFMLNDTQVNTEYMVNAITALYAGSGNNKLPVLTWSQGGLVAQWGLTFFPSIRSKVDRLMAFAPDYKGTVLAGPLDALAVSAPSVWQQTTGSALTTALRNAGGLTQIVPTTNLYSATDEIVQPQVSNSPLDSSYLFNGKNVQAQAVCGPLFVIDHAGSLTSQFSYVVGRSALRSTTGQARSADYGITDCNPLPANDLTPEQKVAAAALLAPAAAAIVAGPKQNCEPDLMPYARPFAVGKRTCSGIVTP
# T1 sequence (P61872 96-392): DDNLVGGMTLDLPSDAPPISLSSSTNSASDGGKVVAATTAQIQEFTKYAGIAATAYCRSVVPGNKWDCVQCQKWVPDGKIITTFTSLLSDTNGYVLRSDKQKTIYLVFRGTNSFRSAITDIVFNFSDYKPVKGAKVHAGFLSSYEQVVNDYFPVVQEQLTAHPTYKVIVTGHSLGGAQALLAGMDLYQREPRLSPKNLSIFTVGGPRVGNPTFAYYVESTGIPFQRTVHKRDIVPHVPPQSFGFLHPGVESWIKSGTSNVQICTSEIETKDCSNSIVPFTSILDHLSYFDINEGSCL
Molecule,"Ester synthesis activity, Specific activity [1]","Ester synthesis activity, Total recovery [1]","Hydrolytic activity, Specific activity [2]","Hydrolytic activity, Total recovery [2]","Ester synthesis activity, Specific activity [3]","Ester synthesis activity, Total recovery [3]","Hydrolytic activity, Specific activity [4]","Hydrolytic activity, Total recovery [4]","Ester synthesis activity, Specific activity [5]","Ester synthesis activity, Total recovery [5]","Hydrolytic activity, Specific activity [6]","Hydrolytic activity, Total recovery [6]","Ester synthesis activity, Specific activity [7]","Ester synthesis activity, Total recovery [7]","Hydrolytic activity, Specific activity [8]","Hydrolytic activity, Total recovery [8]"
"CCCCCCCCCCCCCCCC[N+](C)(C)C.[Br-] [CTAB, hexadecyl trimethyl ammonium bromide]",0 U · mg^−1,0%,0 U · mg^−1,0%,0 U · mg^−1,0%,0 U · mg^−1,0%,0 U · mg^−1,0%,75.5 U · mg^−1,29%,36.6 U · mg^−1,300%,0 U · mg^−1,0%
"CCCCCC(=O)OC[C@H](COP(=O)([O-])OCC[N+](C)(C)C)OC(=O)CCCCC [DiC6PC, 1,2-dihexanoyl lecithin]",15.9 U · mg^−1,256%,104.2 U · mg^−1,87%,3.11 U · mg^−1,–,15.2 U · mg^−1,76%,7.1 U · mg^−1,260%,308.2 U · mg^−1,140%,31.9 U · mg^−1,–,0.98 U · mg^−1,85%
"C[C@H](CCC(=O)NCCC[N+](C)(C)CCCS(=O)(=O)[O-])[C@H]1CC[C@H]2[C@@H]3[C@H](O)C[C@@H]4C[C@H](O)CC[C@]4(C)[C@H]3C[C@H](O)[C@]12C [CHAPS, 3-[(3-Cholamidopropyl)dimethylammonio]-1-propanesulfonate]",13.0 U · mg^−1,105%,132.6 U · mg^−1,109%,2.6 U · mg^−1,–,23.6 U · mg^−1,81%,4.7 U · mg^−1,130%,248.0 U · mg^−1,101%,5.9 U · mg^−1,44%,1.6 U · mg^−1,92%
polyethylene glycol octylphenyl Ether [Triton X-100],12.9 U · mg^−1,192%,116.6 U · mg^−1,93%,1.7 U · mg^−1,200%,34.9 U · mg^−1,99%,6.3 U · mg^−1,174%,364.5 U · mg^−1,131%,77.4 U · mg^−1,–,0 U · mg^−1,0%

# Reference: patent publication US20190185829A1, “Preparation of lipase with improved ester synthesis activity by using surfactants” (Jiangnan University, priority 2017, published 2019)
